{"source": "PubChem BioAssay (NCI)", "experiment_in_all_cases": "inhibition of tumour cell growth, NCI panel, 384-well format", "key": {"786-0 renal": {"test_system": "786-0 renal"}, "A498 renal": {"test_system": "A498 renal"}, "ACHN renal": {"test_system": "ACHN renal"}, "CAKI-1 renal": {"test_system": "CAKI-1 renal"}, "CCRF-CEM leukemia": {"test_system": "CCRF-CEM leukemia"}, "DU-145 prostate": {"test_system": "DU-145 prostate"}, "HCT-116 colon": {"test_system": "HCT-116 colon"}, "HCT-15 colon": {"test_system": "HCT-15 colon"}, "HOP-62 NSCLC": {"test_system": "HOP-62 NSCLC"}, "HOP-92 NSCLC": {"test_system": "HOP-92 NSCLC"}, "HS 578T breast": {"test_system": "HS 578T breast"}, "K-562 leukemia": {"test_system": "K-562 leukemia"}, "LOX IMVI melanoma": {"test_system": "LOX IMVI melanoma"}, "M14 melanoma": {"test_system": "M14 melanoma"}, "MALME-3M melanoma": {"test_system": "MALME-3M melanoma"}, "MCF7 breast": {"test_system": "MCF7 breast"}, "MDA-MB-231 breast": {"test_system": "MDA-MB-231 breast"}, "MDA-MB-435 melanoma": {"test_system": "MDA-MB-435 melanoma"}, "MDA-MB-468 breast": {"test_system": "MDA-MB-468 breast"}, "MOLT-4 leukemia": {"test_system": "MOLT-4 leukemia"}, "NCI-H226 lung": {"test_system": "NCI-H226 lung"}, "NCI-H23 lung": {"test_system": "NCI-H23 lung"}, "NCI-H322M lung": {"test_system": "NCI-H322M lung"}, "NCI-H460 NSCLC": {"test_system": "NCI-H460 NSCLC"}, "NCI-H522 lung": {"test_system": "NCI-H522 lung"}, "NCI/ADR-RES ovarian": {"test_system": "NCI/ADR-RES ovarian"}, "OVCAR-3 ovarian": {"test_system": "OVCAR-3 ovarian"}, "OVCAR-4 ovarian": {"test_system": "OVCAR-4 ovarian"}, "OVCAR-5 ovarian": {"test_system": "OVCAR-5 ovarian"}, "OVCAR-8 ovarian": {"test_system": "OVCAR-8 ovarian"}, "PC-3 prostate": {"test_system": "PC-3 prostate"}, "RXF 393 renal": {"test_system": "RXF 393 renal"}, "SF-295 CNS": {"test_system": "SF-295 CNS"}, "SK-MEL-2 melanoma": {"test_system": "SK-MEL-2 melanoma"}, "SK-MEL-28 melanoma": {"test_system": "SK-MEL-28 melanoma"}, "SK-OV-3 ovarian": {"test_system": "SK-OV-3 ovarian"}, "SN12C renal": {"test_system": "SN12C renal"}, "SNB-19 CNS": {"test_system": "SNB-19 CNS"}, "SNB-75 CNS": {"test_system": "SNB-75 CNS"}, "SR leukemia": {"test_system": "SR leukemia"}, "SW-620 colon": {"test_system": "SW-620 colon"}, "T-47D breast": {"test_system": "T-47D breast"}, "TK-10 renal": {"test_system": "TK-10 renal"}, "U251 glioblastoma": {"test_system": "U251 glioblastoma"}, "UACC-257 melanoma": {"test_system": "UACC-257 melanoma"}, "UACC-62 melanoma": {"test_system": "UACC-62 melanoma"}, "UO-31 renal": {"test_system": "UO-31 renal"}}, "note": "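At the GI50, growth is halved. TGI: concentration producing complete growth inhibition.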", "data": [{"smiles": "CNC(=O)c1cc(Oc2ccc(NC(=O)Nc3ccc(Cl)c(C(F)(F)F)c3)cc2)ccn1", "values": [{"measurement": "GI50", "setting": "786-0 renal", "result": 1.89, "unit": "µM"}, {"measurement": "TGI", "setting": "786-0 renal", "result": 3.7, "unit": "µM"}, {"measurement": "GI50", "setting": "A498 renal", "result": 2.37, "unit": "µM"}, {"measurement": "TGI", "setting": "A498 renal", "result": 4.74, "unit": "µM"}, {"measurement": "GI50", "setting": "ACHN renal", "result": 2.71, "unit": "µM"}, {"measurement": "TGI", "setting": "ACHN renal", "result": 6.37, "unit": "µM"}, {"measurement": "GI50", "setting": "CAKI-1 renal", "result": 2.19, "unit": "µM"}, {"measurement": "TGI", "setting": "CAKI-1 renal", "result": 4.74, "unit": "µM"}, {"measurement": "GI50", "setting": "CCRF-CEM leukemia", "result": 1.59, "unit": "µM"}, {"measurement": "TGI", "setting": "CCRF-CEM leukemia", "result": 2.95, "unit": "µM"}, {"measurement": "GI50", "setting": "DU-145 prostate", "result": 2.69, "unit": "µM"}, {"measurement": "TGI", "setting": "DU-145 prostate", "result": 6.57, "unit": "µM"}, {"measurement": "GI50", "setting": "HCT-116 colon", "result": 1.65, "unit": "µM"}, {"measurement": "TGI", "setting": "HCT-116 colon", "result": 4.14, "unit": "µM"}, {"measurement": "GI50", "setting": "HCT-15 colon", "result": 1.92, "unit": "µM"}, {"measurement": "TGI", "setting": "HCT-15 colon", "result": 4.03, "unit": "µM"}, {"measurement": "GI50", "setting": "HOP-62 NSCLC", "result": 1.84, "unit": "µM"}, {"measurement": "TGI", "setting": "HOP-62 NSCLC", "result": 3.42, "unit": "µM"}, {"measurement": "GI50", "setting": "HOP-92 NSCLC", "result": 3, "unit": "µM"}, {"measurement": "TGI", "setting": "HOP-92 NSCLC", "result": 7.6, "unit": "µM"}, {"measurement": "GI50", "setting": "HS 578T breast", "result": 1.78, "unit": "µM"}, {"measurement": "TGI", "setting": "HS 578T breast", "result": 3.69, "unit": "µM"}, {"measurement": "GI50", "setting": "K-562 leukemia", "result": 1.26, "unit": "µM"}, {"measurement": "TGI", "setting": "K-562 leukemia", "result": 2.55, "unit": "µM"}, {"measurement": "GI50", "setting": "LOX IMVI melanoma", "result": 2.19, "unit": "µM"}, {"measurement": "TGI", "setting": "LOX IMVI melanoma", "result": 4.56, "unit": "µM"}, {"measurement": "GI50", "setting": "M14 melanoma", "result": 2.48, "unit": "µM"}, {"measurement": "TGI", "setting": "M14 melanoma", "result": 5.22, "unit": "µM"}, {"measurement": "GI50", "setting": "MALME-3M melanoma", "result": 2.01, "unit": "µM"}, {"measurement": "TGI", "setting": "MALME-3M melanoma", "result": 4.12, "unit": "µM"}, {"measurement": "GI50", "setting": "MCF7 breast", "result": 2.14, "unit": "µM"}, {"measurement": "TGI", "setting": "MCF7 breast", "result": 5, "unit": "µM"}, {"measurement": "GI50", "setting": "MDA-MB-231 breast", "result": 1.82, "unit": "µM"}, {"measurement": "TGI", "setting": "MDA-MB-231 breast", "result": 3.47, "unit": "µM"}, {"measurement": "GI50", "setting": "MDA-MB-435 melanoma", "result": 2.57, "unit": "µM"}, {"measurement": "TGI", "setting": "MDA-MB-435 melanoma", "result": 4.98, "unit": "µM"}, {"measurement": "GI50", "setting": "MDA-MB-468 breast", "result": 1.5, "unit": "µM"}, {"measurement": "TGI", "setting": "MDA-MB-468 breast", "result": 3.35, "unit": "µM"}, {"measurement": "GI50", "setting": "MOLT-4 leukemia", "result": 1.66, "unit": "µM"}, {"measurement": "TGI", "setting": "MOLT-4 leukemia", "result": 3.06, "unit": "µM"}, {"measurement": "GI50", "setting": "NCI-H226 lung", "result": 1.46, "unit": "µM"}, {"measurement": "TGI", "setting": "NCI-H226 lung", "result": 3.28, "unit": "µM"}, {"measurement": "GI50", "setting": "NCI-H23 lung", "result": 1.56, "unit": "µM"}, {"measurement": "TGI", "setting": "NCI-H23 lung", "result": 3.65, "unit": "µM"}, {"measurement": "GI50", "setting": "NCI-H322M lung", "result": 2.61, "unit": "µM"}, {"measurement": "TGI", "setting": "NCI-H322M lung", "result": 5.16, "unit": "µM"}, {"measurement": "GI50", "setting": "NCI-H460 NSCLC", "result": 2.1, "unit": "µM"}, {"measurement": "TGI", "setting": "NCI-H460 NSCLC", "result": 4.25, "unit": "µM"}, {"measurement": "GI50", "setting": "NCI-H522 lung", "result": 2.04, "unit": "µM"}, {"measurement": "TGI", "setting": "NCI-H522 lung", "result": 4.71, "unit": "µM"}, {"measurement": "GI50", "setting": "NCI/ADR-RES ovarian", "result": 2.12, "unit": "µM"}, {"measurement": "TGI", "setting": "NCI/ADR-RES ovarian", "result": 4.39, "unit": "µM"}, {"measurement": "GI50", "setting": "OVCAR-3 ovarian", "result": 2.28, "unit": "µM"}, {"measurement": "TGI", "setting": "OVCAR-3 ovarian", "result": 4.38, "unit": "µM"}, {"measurement": "GI50", "setting": "OVCAR-4 ovarian", "result": 3.59, "unit": "µM"}, {"measurement": "TGI", "setting": "OVCAR-4 ovarian", "result": 6.84, "unit": "µM"}, {"measurement": "GI50", "setting": "OVCAR-5 ovarian", "result": 2.69, "unit": "µM"}, {"measurement": "TGI", "setting": "OVCAR-5 ovarian", "result": 6.59, "unit": "µM"}, {"measurement": "GI50", "setting": "OVCAR-8 ovarian", "result": 2.09, "unit": "µM"}, {"measurement": "TGI", "setting": "OVCAR-8 ovarian", "result": 4.24, "unit": "µM"}, {"measurement": "GI50", "setting": "PC-3 prostate", "result": 2.71, "unit": "µM"}, {"measurement": "TGI", "setting": "PC-3 prostate", "result": 5.91, "unit": "µM"}, {"measurement": "GI50", "setting": "RXF 393 renal", "result": 2.2, "unit": "µM"}, {"measurement": "TGI", "setting": "RXF 393 renal", "result": 4.43, "unit": "µM"}, {"measurement": "GI50", "setting": "SF-295 CNS", "result": 2.07, "unit": "µM"}, {"measurement": "TGI", "setting": "SF-295 CNS", "result": 4.2, "unit": "µM"}, {"measurement": "GI50", "setting": "SK-MEL-2 melanoma", "result": 2.05, "unit": "µM"}, {"measurement": "TGI", "setting": "SK-MEL-2 melanoma", "result": 3.49, "unit": "µM"}, {"measurement": "GI50", "setting": "SK-MEL-28 melanoma", "result": 2.15, "unit": "µM"}, {"measurement": "TGI", "setting": "SK-MEL-28 melanoma", "result": 4.34, "unit": "µM"}, {"measurement": "GI50", "setting": "SK-OV-3 ovarian", "result": 3.93, "unit": "µM"}, {"measurement": "TGI", "setting": "SK-OV-3 ovarian", "result": 10.4, "unit": "µM"}, {"measurement": "GI50", "setting": "SN12C renal", "result": 2.47, "unit": "µM"}, {"measurement": "TGI", "setting": "SN12C renal", "result": 5.66, "unit": "µM"}, {"measurement": "GI50", "setting": "SNB-19 CNS", "result": 3.33, "unit": "µM"}, {"measurement": "TGI", "setting": "SNB-19 CNS", "result": 8.1, "unit": "µM"}, {"measurement": "GI50", "setting": "SNB-75 CNS", "result": 3.21, "unit": "µM"}, {"measurement": "TGI", "setting": "SNB-75 CNS", "result": 5.92, "unit": "µM"}, {"measurement": "GI50", "setting": "SR leukemia", "result": 2.1, "unit": "µM"}, {"measurement": "TGI", "setting": "SR leukemia", "result": 3.55, "unit": "µM"}, {"measurement": "GI50", "setting": "SW-620 colon", "result": 2.17, "unit": "µM"}, {"measurement": "TGI", "setting": "SW-620 colon", "result": 4.54, "unit": "µM"}, {"measurement": "GI50", "setting": "T-47D breast", "result": 1.94, "unit": "µM"}, {"measurement": "TGI", "setting": "T-47D breast", "result": 5.95, "unit": "µM"}, {"measurement": "GI50", "setting": "TK-10 renal", "result": 5.09, "unit": "µM"}, {"measurement": "TGI", "setting": "TK-10 renal", "result": 17.7, "unit": "µM"}, {"measurement": "GI50", "setting": "U251 glioblastoma", "result": 2, "unit": "µM"}, {"measurement": "TGI", "setting": "U251 glioblastoma", "result": 3.74, "unit": "µM"}, {"measurement": "GI50", "setting": "UACC-257 melanoma", "result": 2.32, "unit": "µM"}, {"measurement": "TGI", "setting": "UACC-257 melanoma", "result": 4.62, "unit": "µM"}, {"measurement": "GI50", "setting": "UACC-62 melanoma", "result": 2.08, "unit": "µM"}, {"measurement": "TGI", "setting": "UACC-62 melanoma", "result": 4.06, "unit": "µM"}, {"measurement": "GI50", "setting": "UO-31 renal", "result": 0.748, "unit": "µM"}, {"measurement": "TGI", "setting": "UO-31 renal", "result": 1.44, "unit": "µM"}]}]}
